# Laboratory results from patent US7557109B2, “Treatment for attention-deficit hyperactivity disorder” (priority 2001, dated 2009).
# Assays:
# Cm mutant mice = details: Hess et al., 1996; cited from earlier work
# [1] = tested on: coloboma (Cm) mutant mice; format: in vivo
# Excerpt: (§1) Heterozygote coloboma mice were originally purchased from The Jackson Laboratory (Bar Harbor, Me.) and were bred and maintained in our colony. In the current study, 20 mutant mice and 25 wild-type littermates, all aged 8 to 10 weeks, were used. Animals were divided into 4 groups: mutant/drug-treatment (n=11), mutant/vehicle-control (n=9), wild-type/drug-treatment (n=13), wild-type/vehicle-control (n=12). Age and gender were balanced among groups. All animals were housed as littermates (2-4 mice per cage) and were maintained on ad libitum food and water with a 12 hr light/dark cycle.
# (§2) Open-field testing was performed under normal lighting conditions. Mice were brought into the experimental room and allowed at least 1 hr of acclimatization. Thirty minutes prior to testing, animals received an ip. injection of either d-amphetamine (4 mg/kg), eltoprazine (0.5 mg/kg) or saline. The mice were then placed in the activity monitor arenas (27×27×20 cm, Med Associates). Four animals of matching genotype and treatment were tested at one time. Each testing session lasted 40 minutes, after which animals were returned to their home cages. An automated infrared beam array system measured locomotor activity (total distance traveled) and number of center entries (zone crossings).
# wild-type mice [2] = test: Open-field locomotor activity, wild-type littermates; format: in vivo
# Excerpt: as §1, §2
# C3H mice = test: Peak procedure (30 second reinforcement interval), C3H mice; format: in vivo; details: 0.3 to 3.0 mg/kg i.p. (FIG. 8)
# Protocol: (§3) The peak procedure is a behavioral model designed to assess an animal's ability to learn an appropriate time period in which to perform a task and a time period in which the animal will be rewarded if the task is performed. The model provides information concerning excitatory and inhibitory components of behavior, as subjects must respond to perform a task when appropriate and stop responding in an “empty trial” when time for reward has elapsed and the reward has not been delivered. The task is sensitive to conditions where there is a failure in inhibitory mechanisms, such as seems to be the case for ADHD (Pliszka et al., Biol. Psychiatry, 48:238-46, 2000).
# In the peak procedure, mice are trained to work for food that is delivered at the same time in each trial, but withdrawn in some unreinforced trials. Typically, the response rate increases up to a maximum around the reinforcement time, and then decreases to a low toward the end of the trial. The shape of the response rate indicates whether the animal is sensitive to the time of reinforcement. To be able to perform well in this model, the animals need to be able to learn several tasks. First, the animal must make an association between a response (lever pressing, nose poking or key pecking) and the delivery of reward. Second, the animal must be able to perceive and remember time. Third, the animal must act on its remembered time by starting and then stopping or inhibiting the response. Fourth, the animal must be able to compare the elapsed time in the trials with its remembered time to reinforcement. […] Accuracy is measured by looking at the shape of the response function; therefore, if the response function is sharper and centered on the reinforcement time it supports a conclusion that attentional processes have been heightened.
# (§4) Mice were food deprived to 85-90% of their free-feeding body weight by supplementing food earned during experimental sessions with a measured amount after the session had ended. […]
# [3] = tested on: DA and 5-HT release in dorsal striatum; test: In vivo microdialysis of DA and 5-HT release in dorsal striatum, 1BKO mice; design: species or system 5-HT1B knock out mice; details: local administration
# Excerpt: (§5) Wild-type and 5-HT1B knock out mice were implanted with microdialysis probes according to the methods of DeGroote et al., incorporated herein by reference, with the following modifications. (DeGroote et al., Eur. J. Pharmacol., 439:93-100, 2002). The dialysis probe was placed in the dorsal striatum, at coordinates AP +0.80, ML −1.7 mm from bregma, DV −4.0 mm from the dura, according to the stereotaxic atlas of the mouse brain (Franklin and Paxinos, 1997), and with the toothbar set at 0 mm. Microdialysis experiments were begun 16-20 hours after surgery, using previously described methods, which are incorporated herein by reference (DeGroote et al., 2002). After the start of the dialysis probe perfusion, mice were left undisturbed for three hours. Mice were tested in their home cage during the light period. Samples were collected every 20 minutes in vials containing 7.5 μl acetic acid and stored at −80° C. until HPLC analysis.
# Release of DA and 5-HT was measured after peripheral administration of eltoprazine or intrastriatal administration of the selective 5-HT1B receptor agonist CP 93129 dihydrochloride (1,4-Dihydro-3-(1,2,3,6-tetrahydro-4-pyridinyl)-5H-pyrrolo[3,2-b]pyridin-5-one, obtained from Tocris, UK.) Drugs were dissolved in distilled water and further diluted in Ringer solution to the final concentration on the day of the experiment. 5-HT and DA were analyzed by HPLC with electrochemical detection. Samples (25 μl) were injected onto an Inertsil ODS-3 column (3 μM, 2.1×100 mm, Aurora Borealis, The Netherlands) using a Gilson pump and autosampler (Separations, The Netherlands). […] The signal was analyzed using Gynkotek software. […]
# Values for the first four consecutive microdialysis samples were averaged to calculate the basal levels of extracellular 5-HT and DA, uncorrected for probe recovery. […] Effects of drug treatment were analyzed by a repeated multivariate analysis of variance (ANOVA) with time as ‘within’ and treatment (or dose) and genotype as ‘between’ factors.
# [4] = tested on: DA and 5-HT release in dorsal striatum; test: In vivo microdialysis of DA and 5-HT release in dorsal striatum, wild-type mice
# Excerpt: as §5
# Release of DA and 5-HT was measured after peripheral administration of eltoprazine or intrastriatal administration of the selective 5-HT1B receptor agonist CP 93129 dihydrochloride (1,4-Dihydro-3-(1,2,3,6-tetrahydro-4-pyridinyl)-5H-pyrrolo[3,2-b]pyridin-5-one, obtained from Tocris, UK.) Drugs were dissolved in distilled water and further diluted in Ringer solution to the final concentration on the day of the experiment. 5-HT and DA were analyzed by HPLC with electrochemical detection. Samples (25 μl) were injected onto an Inertsil ODS-3 column (3 μM, 2.1×100 mm, Aurora Borealis, The Netherlands) using a Gilson pump and autosampler (Separations, The Netherlands). Separation was performed at 40° C. with the electrochemical detector (Intro, ANTEC Leyden, The Netherlands) set at a potential of 600 mV against an Ag/AgCl reference electrode. The signal was analyzed using Gynkotek software. The mobile phase consisted of 5 g/l (NH4)2SO4, 150 mg/l heptane sulphonic acid sodium salt, 0.5 g/l EDTA, 5% methanol, 30 μl/l triethylamine, 30 μl/l acetic acid, pH 4.6. Flow rate was 0.3 ml/min. The detection limit for 5-HT was 0.5 fmol/25 μl sample (signal to noise ratio 2).
# Values for the first four consecutive microdialysis samples were averaged to calculate the basal levels of extracellular 5-HT and DA, uncorrected for probe recovery. Student's t-tests were used to compare basal 5-HT and DA values between the two genotypes. Effects of drug treatment were analyzed by a repeated multivariate analysis of variance (ANOVA) with time as ‘within’ and treatment (or dose) and genotype as ‘between’ factors.
# C57BL/6J mice = test: Peak procedure (30 second reinforcement interval), C57BL/6J mice; format: in vivo
# Protocol: as §3
# In the peak procedure, mice are trained to work for food that is delivered at the same time in each trial, but withdrawn in some unreinforced trials. Typically, the response rate increases up to a maximum around the reinforcement time, and then decreases to a low toward the end of the trial. […] Accuracy is measured by looking at the shape of the response function; therefore, if the response function is sharper and centered on the reinforcement time it supports a conclusion that attentional processes have been heightened.
# as §4
# [5] = tested on: 5-HT1B knockout (1BKO) mice; test: DRL-36s schedule after FR5 conditioning, 5-HT1B knockout mice; format: in vivo
# Protocol: (§6) Experiments were conducted in eight identical mouse operant chambers (16×14×13 cm) with stainless steel grid floors (ENV-307M; Med Associates Inc., Georgia, Vt., USA) housed in sound-insulating and ventilated cubicles. Each chamber was equipped with two ultra-sensitive retractable levers, one on each side of a food cup containing photocells to register nose poke behavior and in which a pellet dispenser delivered 20 mg food pellets (Formula A/I, P.J. Noyes Company Inc., Lancaster, N.H., USA). A red house light (50 lux) was located in the center of the wall opposite to the food cup and levers. Stimulus lights were located above each lever and above the food cup. Experimental sessions were controlled and data were recorded by a computer.
# (§7) Mice trained on DRL procedure first received operant conditioning. DRL-36s task was adapted from procedures used in rats (O'Donnell and Seiden, supra). Briefly, mice first learned to respond for food under a DRL 6 sec schedule, which means that mice had to wait at least 6 seconds between successive lever presses in order to obtain a food reward. Subsequently the schedule requirement was increased every session in steps of 6 sec to 36 sec (DRL 36 sec). Each session started with the illumination of the house light, the stimulus light above the food cup and the presentation of the left lever for the duration of the session. […] If the mouse presses too soon, no reinforcement is given, the clock is reset to zero, and a new 36-sec waiting period starts. In this way, the DRL-36s schedule task primarily measures waiting strategies which reflect hyperactivity-impulsivity behaviors associated with ADHD. Animals were trained until performances on the DRL 36 sec schedule had stabilized (approximately 25 sessions). All training sessions lasted 60 min and were conducted 5 days per week from Monday-Friday. The total number of lever presses (responses), the total number of reinforcements, and the inter-response times (IRT) are recorded.
# Data were analyzed as described elsewhere (Richards et al., J. Exp. Anal. Behav. 60:361-385, 1993; Sabol et al., Psychopharmacology 121:57-65, 1995). The inter-response time (IRT) analysis included three measures for the characterization of DRL 36 sec IRT distributions: peak area, peak location and burst ratio. Only peak area (PkA) and peak location (PkL) are presented. The PkA measure is the area of the obtained IRT distribution of a mouse above the corresponding negative exponential, a computation based on mean of obtained IRT durations excluding the burst component of IRT<3 sec (see Richards et al., supra, for details). […] PkL is calculated as the median of the area of the obtained IRT distribution above the corresponding negative exponential. […]
# wild-type mice [6] = test: DRL-36s schedule after FR5 conditioning, wild-type mice; format: in vivo
# Protocol: as §6, §7
# Data were analyzed as described elsewhere (Richards et al., J. Exp. Anal. Behav. 60:361-385, 1993; Sabol et al., Psychopharmacology 121:57-65, 1995). The inter-response time (IRT) analysis included three measures for the characterization of DRL 36 sec IRT distributions: peak area, peak location and burst ratio. Only peak area (PkA) and peak location (PkL) are presented. The PkA measure is the area of the obtained IRT distribution of a mouse above the corresponding negative exponential, a computation based on mean of obtained IRT durations excluding the burst component of IRT<3 sec (see Richards et al., supra, for details). […] Thus, decreases in PkA indicate that the mouse's IRT distribution becomes more similar to random performance indicating loss of schedule control. PkL is calculated as the median of the area of the obtained IRT distribution above the corresponding negative exponential.
# Mice were conditioned and challenged on a DRL-36s schedule according to the methods of Example 7, with the following modifications. Because 1BKO mice had difficulty learning the DRL-36s schedule following conditioning on an FR1, wild-type and 1BKO mice were conditioned on a fixed rate 5 (FR5) schedule. In FR5, instead of pressing the lever once for a reward, animals have to press 5 times. The rationale for changing the operant conditioning was that by increasing the number of responses necessary for reinforcement, the wild-type mice should have greater difficulty and the 1BKO (which have higher response rates anyway) should have less difficulty getting reinforcements.
smiles,measurement,setting,value
COC(=O)C(c1ccccc1)C1CCCCN1 (stereo not shown) [methylphenidate],hyperactivity / locomotor activity in Cm mutant mice,Cm mutant mice,increases locomotor activity in a dose-dependent manner
"CCCOc1ccc2[nH]cc(C3=CCNCC3)c2n1 [CP 94253, reference compound]",distance traveled,[1]; 0.5 mg/kg (FIG. 7),did not decrease significantly the distance traveled
same,locomotor activity,wild-type mice [2]; 0.5 mg/kg (FIG. 7),no effect on the locomotor activity
same,timing in the peak procedure,C3H mice,no effect on timing in the peak procedure
"O=c1ccc2[nH]cc(C3=CCNCC3)c2[nH]1 [CP 93129, 1,4-Dihydro-3-(1,2,3,6-tetrahydro-4-pyridinyl)-5H-pyrrolo[3,2-b]pyridin-5-one, reference compound]",5-HT release,[3]; 0.5 μM,did not decrease 5-HT release
same,striatal release of DA,[3]; 0.5 μM,similarly unaffected
same,increase in DA levels,"[3]; 50 μM, compared to vehicle",527±67%
same,DA release,"[4]; 0.5 μM, local administration",unaffected
same,time for 5-HT release to return toward basal levels after cessation,"[4]; 0.5 μM, local administration",≤ 40 min
same,5-HT level as compared to vehicle,"[4]; 0.5 μM, local administration through probe",51±9%
same,increase in DA levels,"[4]; 50 μM, local administration, compared to vehicle",525±79%
C[C@H](N)Cc1ccccc1 [d-amphetamine],hyperactivity / locomotor activity in Cm mutant mice,Cm mutant mice,normalizes the hyperactivity
same,relative response rate curve in peak trials,"C57BL/6J mice; 4 mg/kg, 30 min before session (FIG. 1C)",does not peak as high as the lower dose and the curve is flatter
same,relative response rate curve in peak trials,"C57BL/6J mice; 1 and 2 mg/kg, 30 min before session, relative to saline (FIGS. 1A, 1B)",higher peak in the curve followed by a rapid decrease
same,number of reinforcements,"[5]; 2, 4 or 8 mg/kg i.p. (FIG. 12A)",no significant effect on number of reinforcements
same,response rate,"[5]; 2, 4 or 8 mg/kg i.p. (FIG. 12B)",not statistically significant at any dose
same,total distance traveled,"[1]; 4 mg/kg i.p., 40 min session, saline 18386±6387 (FIG. 4)",5966±1938 cm
same,total distance traveled,"wild-type mice [2]; 4 mg/kg i.p., 40 min session, saline 3116±338 (FIG. 4)",11657±2370 cm
same,response rate,wild-type mice [6]; 2 mg/kg i.p.,significantly increased response rate
same,response rate,"wild-type mice [6]; 4 mg/kg i.p., wild-type vs 1BKO",significantly decreased response rate in wild-types compared to 1BKO mice
same,response rate,wild-type mice [6]; 8 mg/kg i.p.,decreased response rate
same,number of reinforcements,wild-type mice [6]; 2 and 8 mg/kg i.p. vs vehicle (FIG. 12A),significantly decreased the number of reinforcements
